Data from patent US10851098B2, “Azole amides and amines as alpha v integrin inhibitors” (BRISTOL-MYERS SQUIBB COMPANY, priority 2016, dated 2020).

Biological target: human αVβ3 (Homo sapiens, UniProt P05106+P06756)
Experiment: human αVβ3 HTRF binding assay
Details: printed as αVβ4, read-out: Human αVβ4 IC50
Description: (§1) All binding assays used the HTRF (homogeneous time resolved fluorescence) technology from Cisbio International, therefore all assays are described as HTRF binding assays. The assay results for the Examples are listed above together with the characterization data. The HTRF binding assays are established for the following integrins: human αVβ6, human αVβ1, human αVβ3, human αVβ5, and human αVβ8. All assays used the following assay buffer: 20 mM Tris, pH 7.4, 1 mM MgCl2, 1 mM MnCl2, 0.01% Tween 20, and 0.01% BSA. Alternatively, a SPA-based assay was used for evaluation of receptor binding.
(§2) […]

human αVβ3, sequence (P06756 31-992 limits assumed): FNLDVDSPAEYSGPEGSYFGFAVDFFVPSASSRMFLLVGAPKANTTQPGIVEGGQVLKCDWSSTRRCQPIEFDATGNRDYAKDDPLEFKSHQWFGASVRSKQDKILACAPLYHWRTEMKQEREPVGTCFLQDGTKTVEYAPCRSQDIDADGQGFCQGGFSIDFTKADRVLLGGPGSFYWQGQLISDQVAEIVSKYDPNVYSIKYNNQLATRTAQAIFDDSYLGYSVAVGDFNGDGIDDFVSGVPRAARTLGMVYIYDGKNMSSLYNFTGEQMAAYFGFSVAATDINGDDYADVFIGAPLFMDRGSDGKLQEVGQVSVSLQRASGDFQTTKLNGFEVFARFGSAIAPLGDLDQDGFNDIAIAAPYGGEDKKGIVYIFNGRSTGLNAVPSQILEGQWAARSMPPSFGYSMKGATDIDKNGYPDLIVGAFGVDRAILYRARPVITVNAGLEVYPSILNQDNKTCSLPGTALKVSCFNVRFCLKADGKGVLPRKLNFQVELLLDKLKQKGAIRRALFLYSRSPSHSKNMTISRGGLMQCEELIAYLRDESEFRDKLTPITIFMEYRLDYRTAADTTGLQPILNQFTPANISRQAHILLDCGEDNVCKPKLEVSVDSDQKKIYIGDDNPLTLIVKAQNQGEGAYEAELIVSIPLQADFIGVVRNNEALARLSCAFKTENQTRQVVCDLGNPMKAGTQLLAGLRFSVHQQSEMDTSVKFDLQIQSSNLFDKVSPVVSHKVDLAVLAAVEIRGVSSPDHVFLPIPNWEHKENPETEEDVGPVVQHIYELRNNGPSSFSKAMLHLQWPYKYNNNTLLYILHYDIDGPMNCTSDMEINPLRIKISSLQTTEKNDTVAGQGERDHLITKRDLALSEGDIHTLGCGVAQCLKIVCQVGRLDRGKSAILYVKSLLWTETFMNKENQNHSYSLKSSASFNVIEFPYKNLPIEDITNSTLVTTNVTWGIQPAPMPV
human αVβ3, sequence (P05106 27-718 limits assumed): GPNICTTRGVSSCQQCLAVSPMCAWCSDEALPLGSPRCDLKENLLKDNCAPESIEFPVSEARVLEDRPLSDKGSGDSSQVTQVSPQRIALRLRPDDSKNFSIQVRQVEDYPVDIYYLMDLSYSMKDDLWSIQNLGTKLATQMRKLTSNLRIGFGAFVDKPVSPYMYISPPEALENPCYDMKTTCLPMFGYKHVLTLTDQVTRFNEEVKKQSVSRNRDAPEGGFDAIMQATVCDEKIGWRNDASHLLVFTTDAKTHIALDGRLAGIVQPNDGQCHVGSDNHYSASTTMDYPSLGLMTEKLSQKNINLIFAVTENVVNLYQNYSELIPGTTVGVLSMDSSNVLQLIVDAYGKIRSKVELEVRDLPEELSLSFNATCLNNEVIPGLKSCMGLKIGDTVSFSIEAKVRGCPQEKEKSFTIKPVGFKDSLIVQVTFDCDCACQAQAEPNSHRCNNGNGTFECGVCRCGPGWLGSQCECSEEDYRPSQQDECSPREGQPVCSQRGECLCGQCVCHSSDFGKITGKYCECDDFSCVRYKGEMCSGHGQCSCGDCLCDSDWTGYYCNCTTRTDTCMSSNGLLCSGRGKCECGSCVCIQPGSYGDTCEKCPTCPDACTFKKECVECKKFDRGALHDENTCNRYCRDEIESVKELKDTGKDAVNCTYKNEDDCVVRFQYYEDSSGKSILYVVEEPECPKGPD

| SMILES | IC50 |
| --- | --- |
| Cc1cc(C)c(S(=O)(=O)N[C@H](CNC(=O)c2cn(CCc3ccc4c(n3)NCCC4)cn2)C(=O)O)c(C)c1 [Example 114] | 4.4 nM |

Same assay, conditions: read-out: Human αVβ3 IC50

| SMILES | IC50 |
| --- | --- |
| O=C(N[C@@H](CNC(=O)c1cnn(CCc2ccc3c(n2)NCCC3)c1)C(=O)O)OCc1ccccc1 [Example 12, (S)-2-(((Benzyloxy)carbonyl)amino)-3-(1-(2-(5,6,7,8-tetrahydro-1,8-naphthyridin-2-yl)ethyl)-1H-pyrazole-4-carboxamido)propanoic acid] | 2.1 nM |

Biological target: human αVβ8 (Homo sapiens, UniProt P06756+P26012)
Experiment: human αVβ8 HTRF binding assay
Details: not given
Description: as §1, with “binding. […]” for “binding.”

human αVβ8, sequence (P06756 31-992 limits assumed): as the sequence (P06756 31-992 limits assumed) above
human αVβ8, sequence (P26012 43-684 limits assumed): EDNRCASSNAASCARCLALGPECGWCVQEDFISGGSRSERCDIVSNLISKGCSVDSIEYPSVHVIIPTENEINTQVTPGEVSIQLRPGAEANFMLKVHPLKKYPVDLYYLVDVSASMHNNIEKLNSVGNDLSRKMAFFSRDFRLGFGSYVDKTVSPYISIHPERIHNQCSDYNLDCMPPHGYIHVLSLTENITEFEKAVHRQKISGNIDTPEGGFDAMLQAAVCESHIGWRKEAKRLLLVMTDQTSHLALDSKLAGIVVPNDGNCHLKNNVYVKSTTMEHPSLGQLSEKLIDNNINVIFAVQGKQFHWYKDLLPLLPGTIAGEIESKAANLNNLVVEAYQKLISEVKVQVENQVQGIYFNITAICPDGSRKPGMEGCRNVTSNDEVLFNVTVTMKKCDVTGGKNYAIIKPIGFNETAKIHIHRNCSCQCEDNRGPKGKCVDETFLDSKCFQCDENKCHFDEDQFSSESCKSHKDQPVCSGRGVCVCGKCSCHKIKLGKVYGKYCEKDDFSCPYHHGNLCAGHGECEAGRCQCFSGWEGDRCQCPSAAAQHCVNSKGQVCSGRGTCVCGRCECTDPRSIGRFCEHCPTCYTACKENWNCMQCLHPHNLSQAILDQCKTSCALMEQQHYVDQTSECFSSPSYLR

| SMILES | IC50 |
| --- | --- |
| O=C(N[C@@H](CNC(=O)c1cnn(CCc2ccc3c(n2)NCCC3)c1)C(=O)O)OCc1ccccc1 [Example 12, (S)-2-(((Benzyloxy)carbonyl)amino)-3-(1-(2-(5,6,7,8-tetrahydro-1,8-naphthyridin-2-yl)ethyl)-1H-pyrazole-4-carboxamido)propanoic acid] | 49 nM |
| Cc1cc(C)c(S(=O)(=O)N[C@H](CNC(=O)c2cn(CCc3ccc4c(n3)NCCC4)cn2)C(=O)O)c(C)c1 [Example 114] | 156 nM |

Biological target: human αVβ5 (Homo sapiens, UniProt P06756+P18084)
Experiment: human αVβ5 HTRF binding assay
Details: not given
Description: as §1, with “binding. […]” for “binding.”

human αVβ5, sequence (P06756 31-992 limits assumed): as the sequence (P06756 31-992 limits assumed) above
human αVβ5, sequence (P18084 24-719 limits assumed): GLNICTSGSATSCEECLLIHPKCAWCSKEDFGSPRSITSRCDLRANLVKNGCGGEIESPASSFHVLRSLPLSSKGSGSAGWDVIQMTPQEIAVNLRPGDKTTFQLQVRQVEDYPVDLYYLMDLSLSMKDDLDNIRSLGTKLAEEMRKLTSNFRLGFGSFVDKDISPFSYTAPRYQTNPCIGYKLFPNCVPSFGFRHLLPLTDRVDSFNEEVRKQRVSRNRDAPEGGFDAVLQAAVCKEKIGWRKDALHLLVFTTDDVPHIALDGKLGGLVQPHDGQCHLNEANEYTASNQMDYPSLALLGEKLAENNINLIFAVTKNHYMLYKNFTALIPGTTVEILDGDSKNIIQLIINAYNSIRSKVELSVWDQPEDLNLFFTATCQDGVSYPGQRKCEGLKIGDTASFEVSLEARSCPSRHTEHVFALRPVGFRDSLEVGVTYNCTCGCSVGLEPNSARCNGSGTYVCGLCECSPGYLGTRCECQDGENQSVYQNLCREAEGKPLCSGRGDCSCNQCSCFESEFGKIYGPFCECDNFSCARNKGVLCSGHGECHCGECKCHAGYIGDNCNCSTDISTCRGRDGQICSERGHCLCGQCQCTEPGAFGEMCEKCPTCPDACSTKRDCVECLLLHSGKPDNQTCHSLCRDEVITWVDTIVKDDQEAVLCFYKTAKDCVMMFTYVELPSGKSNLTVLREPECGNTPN

| SMILES | IC50 |
| --- | --- |
| O=C(N[C@@H](CNC(=O)c1cnn(CCc2ccc3c(n2)NCCC3)c1)C(=O)O)OCc1ccccc1 [Example 12, (S)-2-(((Benzyloxy)carbonyl)amino)-3-(1-(2-(5,6,7,8-tetrahydro-1,8-naphthyridin-2-yl)ethyl)-1H-pyrazole-4-carboxamido)propanoic acid] | 0.2 nM |
| Cc1cc(C)c(S(=O)(=O)N[C@H](CNC(=O)c2cn(CCc3ccc4c(n3)NCCC4)cn2)C(=O)O)c(C)c1 [Example 114] | 0.5 nM |

Biological target: T1, human αVβ6 (Homo sapiens, UniProt P06756+P18564)
T1 construct: purchased R & D systems 3817-AV
Experiment: human αVβ6 HTRF binding assay
Details: not given
Description: as §1, §2

T1 sequence (P06756 31-992 limits assumed): as the sequence (P06756 31-992 limits assumed) above
T1 sequence (P18564 22-707 limits assumed): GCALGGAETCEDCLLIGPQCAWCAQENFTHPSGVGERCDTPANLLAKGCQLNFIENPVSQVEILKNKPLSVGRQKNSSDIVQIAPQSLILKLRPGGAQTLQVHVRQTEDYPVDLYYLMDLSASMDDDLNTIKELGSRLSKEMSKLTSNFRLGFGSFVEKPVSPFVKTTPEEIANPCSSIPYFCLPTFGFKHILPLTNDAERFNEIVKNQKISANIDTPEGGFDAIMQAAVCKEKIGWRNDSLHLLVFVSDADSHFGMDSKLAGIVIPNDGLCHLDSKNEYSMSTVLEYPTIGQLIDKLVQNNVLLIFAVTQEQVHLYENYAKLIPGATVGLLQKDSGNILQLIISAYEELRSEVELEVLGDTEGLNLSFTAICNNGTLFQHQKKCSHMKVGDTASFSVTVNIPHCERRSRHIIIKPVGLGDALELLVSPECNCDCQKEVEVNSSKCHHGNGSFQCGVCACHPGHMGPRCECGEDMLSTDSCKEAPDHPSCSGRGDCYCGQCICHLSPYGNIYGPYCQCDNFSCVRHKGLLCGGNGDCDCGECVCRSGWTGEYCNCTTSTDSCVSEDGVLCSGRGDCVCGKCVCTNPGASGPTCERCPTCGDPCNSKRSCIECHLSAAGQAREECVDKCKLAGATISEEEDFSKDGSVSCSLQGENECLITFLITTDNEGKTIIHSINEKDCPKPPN

| SMILES | IC50 |
| --- | --- |
| O=C(N[C@@H](CNC(=O)c1cnn(CCc2ccc3c(n2)NCCC3)c1)C(=O)O)OCc1ccccc1 [Example 12, (S)-2-(((Benzyloxy)carbonyl)amino)-3-(1-(2-(5,6,7,8-tetrahydro-1,8-naphthyridin-2-yl)ethyl)-1H-pyrazole-4-carboxamido)propanoic acid] | 1.1 nM |
| Cc1cc(C)c(S(=O)(=O)N[C@H](CNC(=O)c2cn(CCc3ccc4c(n3)NCCC4)cn2)C(=O)O)c(C)c1 [Example 114] | 2 nM |
| CCS(=O)(=O)N[C@@H](CNC(=O)c1cnn(CCc2ccc3c(n2)NCCC3)c1)C(=O)O [Example 126] | 10 nM |
| CCCOC(=O)N[C@@H](CNC(=O)c1cnn(CCc2ccc3c(n2)NCCC3)c1)C(=O)O [Example 127] | 1.5 nM |
| O=C(NC[C@H](NS(=O)(=O)Cc1ccccc1C(F)(F)F)C(=O)O)c1cnn(CCc2ccc3c(n2)NCCC3)c1 [Example 128] | 2.5 nM |
| O=C(NC[C@H](NS(=O)(=O)CCC(F)(F)F)C(=O)O)c1cnn(CCc2ccc3c(n2)NCCC3)c1 [Example 129] | 3 nM |
| COC(=O)N[C@@H](CNC(=O)c1cnn(CCc2ccc3c(n2)NCCC3)c1)C(=O)O [Example 130] | 13 nM |
| CC(C)COC(=O)N[C@@H](CNC(=O)c1cnn(CCc2ccc3c(n2)NCCC3)c1)C(=O)O [Example 131] | 0.9 nM |
| CCOC(=O)N[C@@H](CNC(=O)c1cnn(CCc2ccc3c(n2)NCCC3)c1)C(=O)O [Example 132] | 2.3 nM |
| C=CCOC(=O)N[C@@H](CNC(=O)c1cnn(CCc2ccc3c(n2)NCCC3)c1)C(=O)O [Example 133] | 2.6 nM |
| CCCCCOC(=O)N[C@@H](CNC(=O)c1cnn(CCc2ccc3c(n2)NCCC3)c1)C(=O)O [Example 134] | 0.8 nM |
| C=CCCOC(=O)N[C@@H](CNC(=O)c1cnn(CCc2ccc3c(n2)NCCC3)c1)C(=O)O [Example 135] | 1.4 nM |
| C#CCOC(=O)N[C@@H](CNC(=O)c1cnn(CCc2ccc3c(n2)NCCC3)c1)C(=O)O [Example 136] | 2 nM |
| CC(C)(C)COC(=O)N[C@@H](CNC(=O)c1cnn(CCc2ccc3c(n2)NCCC3)c1)C(=O)O [Example 137] | 0.8 nM |
| CCCS(=O)(=O)N[C@@H](CNC(=O)c1cnn(CCc2ccc3c(n2)NCCC3)c1)C(=O)O [Example 138] | 4.1 nM |
| O=C(NC[C@H](NS(=O)(=O)CCc1cccc2ccccc12)C(=O)O)c1cnn(CCc2ccc3c(n2)NCCC3)c1 [Example 139] | 0.9 nM |
| O=C(NC[C@H](NS(=O)(=O)Cc1cc(Cl)cc(Cl)c1)C(=O)O)c1cnn(CCc2ccc3c(n2)NCCC3)c1 [Example 140] | 6.2 nM |
| O=C(NC[C@H](NS(=O)(=O)Cc1ccc(Cl)c(Cl)c1)C(=O)O)c1cnn(CCc2ccc3c(n2)NCCC3)c1 [Example 141] | 3.6 nM |
| O=C(NC[C@H](NS(=O)(=O)Cc1cccc(F)c1)C(=O)O)c1cnn(CCc2ccc3c(n2)NCCC3)c1 [Example 142] | 8.2 nM |
| Cc1cccc(CS(=O)(=O)N[C@@H](CNC(=O)c2cnn(CCc3ccc4c(n3)NCCC4)c2)C(=O)O)c1 [Example 143] | 11 nM |
| CCCCCS(=O)(=O)N[C@@H](CNC(=O)c1cnn(CCc2ccc3c(n2)NCCC3)c1)C(=O)O [Example 144] | 2.1 nM |
| CC(C)CS(=O)(=O)N[C@@H](CNC(=O)c1cnn(CCc2ccc3c(n2)NCCC3)c1)C(=O)O [Example 145] | 3.9 nM |
| O=C(NC[C@H](NS(=O)(=O)Cc1ccc(OC(F)(F)F)cc1)C(=O)O)c1cnn(CCc2ccc3c(n2)NCCC3)c1 [Example 146] | 8.6 nM |
| COCCS(=O)(=O)N[C@@H](CNC(=O)c1cnn(CCc2ccc3c(n2)NCCC3)c1)C(=O)O [Example 147] | 14 nM |
| CCOCCS(=O)(=O)N[C@@H](CNC(=O)c1cnn(CCc2ccc3c(n2)NCCC3)c1)C(=O)O [Example 148] | 8.9 nM |
| COCCOC(=O)N[C@@H](CNC(=O)c1cnn(CCc2ccc3c(n2)NCCC3)c1)C(=O)O [Example 149] | 4.7 nM |
| O=C(NC[C@H](NS(=O)(=O)Cc1ccc(C(F)(F)F)cc1)C(=O)O)c1cnn(CCc2ccc3c(n2)NCCC3)c1 [Example 150] | 5.7 nM |

| SMILES | IC50 |
| --- | --- |
| O=C(NC[C@H](NS(=O)(=O)CCN1C(=O)c2ccccc2C1=O)C(=O)O)c1cnn(CCc2ccc3c(n2)NCCC3)c1 [Example 151] | 1.2 nM |
| CCCCC(CC)COC(=O)N[C@@H](CNC(=O)c1cnn(CCc2ccc3c(n2)NCCC3)c1)C(=O)O (some centres unmarked) [Example 152] | 0.4 nM |
| O=C(N[C@@H](CNC(=O)c1cnn(CCc2ccc3c(n2)NCCC3)c1)C(=O)O)OCC(F)(F)F [Example 153] | 1.6 nM |
| O=C(NC[C@H](NS(=O)(=O)Cc1cccc(C(F)(F)F)c1)C(=O)O)c1cnn(CCc2ccc3c(n2)NCCC3)c1 [Example 154] | 16 nM |
| O=C(NC[C@H](NS(=O)(=O)Cc1ccccc1Cl)C(=O)O)c1cnn(CCc2ccc3c(n2)NCCC3)c1 [Example 155] | 5.5 nM |
| O=C(NC[C@H](NS(=O)(=O)Cc1cccc(Br)c1)C(=O)O)c1cnn(CCc2ccc3c(n2)NCCC3)c1 [Example 156] | 21 nM |
| O=C(NC[C@H](NS(=O)(=O)Cc1cc(C(F)(F)F)cc(C(F)(F)F)c1)C(=O)O)c1cnn(CCc2ccc3c(n2)NCCC3)c1 [Example 157] | 16 nM |
| Cc1cc(CS(=O)(=O)N[C@@H](CNC(=O)c2cnn(CCc3ccc4c(n3)NCCC4)c2)C(=O)O)no1 [Example 158] | 29 nM |
| O=C(NC[C@H](NS(=O)(=O)CC1CC1)C(=O)O)c1cnn(CCc2ccc3c(n2)NCCC3)c1 [Example 159] | 2.7 nM |
| CCCCCCOC(=O)N[C@@H](CNC(=O)c1cnn(CCc2ccc3c(n2)NCCC3)c1)C(=O)O [Example 160] | 0.7 nM |
| Cc1ccc(CS(=O)(=O)N[C@@H](CNC(=O)c2cnn(CCc3ccc4c(n3)NCCC4)c2)C(=O)O)cc1 [Example 161] | 15 nM |
| CC#CCOC(=O)N[C@@H](CNC(=O)c1cnn(CCc2ccc3c(n2)NCCC3)c1)C(=O)O [Example 162] | 2.2 nM |
| O=C(NC[C@H](NS(=O)(=O)Cc1cccc(Cl)c1)C(=O)O)c1cnn(CCc2ccc3c(n2)NCCC3)c1 [Example 163] | 6.2 nM |
| O=C(NC[C@H](NS(=O)(=O)CC1CCCCC1)C(=O)O)c1cnn(CCc2ccc3c(n2)NCCC3)c1 [Example 164] | 6.4 nM |
| O=C(NC[C@H](NS(=O)(=O)Cc1ccc(Cl)cc1Cl)C(=O)O)c1cnn(CCc2ccc3c(n2)NCCC3)c1 [Example 165] | 2.9 nM |
| O=C(NC[C@H](NS(=O)(=O)Cc1ccccc1F)C(=O)O)c1cnn(CCc2ccc3c(n2)NCCC3)c1 [Example 166] | 10 nM |
| O=C(NC[C@H](NS(=O)(=O)Cc1ccncc1)C(=O)O)c1cnn(CCc2ccc3c(n2)NCCC3)c1 [Example 167] | 9.5 nM |
| O=C(NC[C@H](NS(=O)(=O)Cc1ccc(F)cc1)C(=O)O)c1cnn(CCc2ccc3c(n2)NCCC3)c1 [Example 168] | 17 nM |
| N#Cc1cccc(CS(=O)(=O)N[C@@H](CNC(=O)c2cnn(CCc3ccc4c(n3)NCCC4)c2)C(=O)O)c1 [Example 169] | 13 nM |
| O=C(N[C@@H](CNC(=O)c1cnn(CCc2ccc3c(n2)NCCC3)c1)C(=O)O)OCCF [Example 170] | 5.5 nM |
| Cc1cc(C)c(S(=O)(=O)N[C@@H](CNC(=O)c2cnn(CCCNC3=NCCN3)c2)C(=O)O)c(C)c1 [Example 171] | 14 nM |
| Cc1cc(C)c(S(=O)(=O)N[C@@H](CNC(=O)c2cnn(CCCNC3=NCC(O)CN3)c2)C(=O)O)c(C)c1 (some centres unmarked) [Example 172] | 4.5 nM |
| Cc1cc(C)c(S(=O)(=O)N[C@@H](CNC(=O)c2cnn(CCCNC3=NCC(F)CN3)c2)C(=O)O)c(C)c1 (some centres unmarked) [Example 173] | 2.1 nM |
| O=C(N[C@@H](CNCc1cnn(CCc2ccc3c(n2)NCCC3)c1)C(=O)O)OCc1ccccc1 [Example 174, (S)-2-(((Benzyloxy)carbonyl)amino)-3-(((1-(2-(5,6,7,8-tetrahydro-1,8-naphthyridin-2-yl)ethyl)-1H-pyrazol-4-yl)methyl)amino)propanoic acid] | 6.2 nM |
| O=C(O)CCNCc1cnn(CCc2ccc3c(n2)NCCC3)c1 [Example 175, 3-(((1-(2-(5,6,7,8-Tetrahydro-1,8-naphthyridin-2-yl)ethyl)-1H-pyrazol-4-yl)methyl)amino)propanoic acid] | 272 nM |
| O=C(O)CCN(Cc1cnn(CCc2ccc3c(n2)NCCC3)c1)C(=O)OCc1ccccc1 [Example 176, 3-(((Benzyloxy)carbonyl)((1-(2-(5,6,7,8-tetrahydro-1,8-naphthyridin-2-yl)ethyl)-1H-pyrazol-4-yl)methyl)amino)propanoic acid] | 249 nM |
